Assay results taken from US12209087B2, “AKT1 modulators” (Alterome Therapeutics, Inc., priority 2022, dated 2025).

Biological target: T1, full length AKT E17K (Homo sapiens, UniProt P31749, E17K)
T1 construct: host or cells: HEK-293 (ATCC CRL-1573)
Test: NanoBRET Target Engagement (TE) Assay
Type: cell-based
Conditions: competitive displacement of tracer in cells, read-out: AKT1 E17K IC50
How it was run: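 Compound and tracer incubated 2 h before luminescence at donor 450 nm and acceptor 600 nm, with extracellular signal inhibited. EC50 by sigmoidal variable-slope regression.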

T1 sequence (P31749 whole entry E17K): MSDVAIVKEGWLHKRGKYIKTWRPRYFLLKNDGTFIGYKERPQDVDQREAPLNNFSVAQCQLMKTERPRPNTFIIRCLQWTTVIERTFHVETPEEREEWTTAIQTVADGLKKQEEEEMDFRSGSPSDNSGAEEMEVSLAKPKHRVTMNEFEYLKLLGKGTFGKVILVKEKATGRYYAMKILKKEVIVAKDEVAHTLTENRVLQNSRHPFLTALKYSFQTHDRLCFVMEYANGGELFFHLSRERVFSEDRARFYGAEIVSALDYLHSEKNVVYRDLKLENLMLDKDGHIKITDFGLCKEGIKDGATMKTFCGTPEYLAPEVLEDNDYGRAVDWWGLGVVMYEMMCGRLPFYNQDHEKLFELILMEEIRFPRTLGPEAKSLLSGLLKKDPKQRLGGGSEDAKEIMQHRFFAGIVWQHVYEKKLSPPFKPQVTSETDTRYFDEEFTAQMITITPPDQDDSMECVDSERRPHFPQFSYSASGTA

SMILES: CC(=O)N(C)C1CCN(c2cccc(-c3ccc4nc(-c5cccnc5N)n(-c5ccc(CN6CCC(Nc7ccnc(C#N)n7)CC6)cc5)c4n3)c2)CC1 [Example 522, N-(1-(3-(2-(2-Aminopyridin-3-yl)-3-(4-((4-((2-cyanopyrimidin-4-yl)amino)piperidin-1-yl)methyl)phenyl)-3H-imidazo[4,5-b]pyridin-5-yl)phenyl)piperidin-4-yl)-N-methylacetamide]
- IC50: 15 to 60 nM

SMILES: Cc1cc(F)ccc1-c1ccc2nc(-c3cccnc3N)n(-c3ccc(CN4CCC(Nc5ccnc(C#N)n5)CC4)cc3)c2n1 [Example 523, 4-((1-(4-(2-(2-Aminopyridin-3-yl)-5-(4-fluoro-2-methylphenyl)-3H-imidazo[4,5-b]pyridin-3-yl)benzyl)piperidin-4-yl)amino)pyrimidine-2-carbonitrile]
- IC50: 15 to 60 nM

SMILES: N#Cc1nccc(NC2CCN(Cc3ccc(-n4c(-c5cccnc5N)nc5ccc(-c6ccc(F)cc6C(N)=O)nc54)cc3)CC2)n1 [Example 524, 2-(2-(2-aminopyridin-3-yl)-3-(4-((4-((2-cyanopyrimidin-4-yl)amino)piperidin-1-yl)methyl)phenyl)-3H-imidazo[4,5-b]pyridin-5-yl)-5-fluorobenzamide]
- IC50: 600 to 10000 nM

SMILES: N#Cc1nccc(NC2CCN(Cc3ccc(-n4c(-c5cccnc5N)nc5ccc(-c6ccc(F)cc6C#N)nc54)cc3)CC2)n1 [Example 525, 4-((1-(4-(2-(2-Aminopyridin-3-yl)-5-(2-cyano-4-fluorophenyl)-3H-imidazo[4,5-b]pyridin-3-yl)benzyl)piperidin-4-yl)amino)pyrimidine-2-carbonitrile]
- IC50: 15 to 60 nM

SMILES: N#Cc1nccc(NC2CCN(Cc3ccc(-n4c(-c5cccnc5N)nc5ccc(-c6ccc(F)cc6C(F)(F)F)nc54)cc3)CC2)n1 [Example 526, 4-((1-(4-(2-(2-Aminopyridin-3-yl)-5-(4-fluoro-2-(trifluoromethyl)phenyl)-3H-imidazo[4,5-b]pyridin-3-yl)benzyl)piperidin-4-yl)amino)pyrimidine-2-carbonitrile]
- IC50: 600 to 10000 nM

SMILES: Cc1ccccc1-c1ccc2nc(-c3cccnc3N)n(-c3ccc(CN4CCC(Nc5ccnc(C#N)n5)CC4)cc3)c2n1 [Example 527, 4-((1-(4-(2-(2-Aminopyridin-3-yl)-5-(o-tolyl)-3H-imidazo[4,5-b]pyridin-3-yl)benzyl)piperidin-4-yl)amino)pyrimidine-2-carbonitrile]
- IC50: < 15 nM

SMILES: Cc1cccc(-c2ccc3nc(-c4cccnc4N)n(-c4ccc(CN5CCC(Nc6ccnc(C#N)n6)CC5)cc4)c3n2)c1 [Example 528, 4-((1-(4-(2-(2-Aminopyridin-3-yl)-5-(m-tolyl)-3H-imidazo[4,5-b]pyridin-3-yl)benzyl)piperidin-4-yl)amino)pyrimidine-2-carbonitrile]
- IC50: < 15 nM

SMILES: Cc1ccc(-c2ccc3nc(-c4cccnc4N)n(-c4ccc(CN5CCC(Nc6ccnc(C#N)n6)CC5)cc4)c3n2)cc1 [Example 529, 4-((1-(4-(2-(2-Aminopyridin-3-yl)-5-(p-tolyl)-3H-imidazo[4,5-b]pyridin-3-yl)benzyl)piperidin-4-yl)amino)pyrimidine-2-carbonitrile]
- IC50: < 15 nM

SMILES: N#Cc1nccc(NC2CCN(Cc3ccc(-n4c(-c5cccnc5N)nc5ccc(-c6cccc(C(F)(F)F)c6)nc54)cc3)CC2)n1 [Example 530, 4-((1-(4-(2-(2-Aminopyridin-3-yl)-5-(3-(trifluoromethyl)phenyl)-3H-imidazo[4,5-b]pyridin-3-yl)benzyl)piperidin-4-yl)amino)pyrimidine-2-carbonitrile]
- IC50: 15 to 60 nM

SMILES: CC(C)OC(=O)c1ccc2nc(-c3cccnc3N)n(-c3ccc(CN4CCC(Nc5ccnc(C#N)n5)CC4)cc3)c2n1 [Example 531, Isopropyl 2-(2-aminopyridin-3-yl)-3-(4-((4-((2-cyanopyrimidin-4-yl)amino)piperidin-1-yl)methyl)phenyl)-3H-imidazo[4,5-b]pyridine-5-carboxylate]
- IC50: < 15 nM

SMILES: N#Cc1nccc(NC2CCN(Cc3ccc(-n4c(-c5cccnc5N)nc5ccccc54)cc3)CC2)n1 [Example 532, 4-((1-(4-(2-(2-Aminopyridin-3-yl)-1H-benzo[d]imidazol-1-yl)benzyl)piperidin-4-yl)amino)pyrimidine-2-carbonitrile]
- IC50: 60 to 600 nM

SMILES: N#Cc1nccc(NC2CCN(Cc3ccc(-n4c(-c5cccnc5N)nc5ncccc54)cc3)CC2)n1 [Example 533, 4-((1-(4-(2-(2-Aminopyridin-3-yl)-1H-imidazo[4,5-b]pyridin-1-yl)benzyl)piperidin-4-yl)amino)pyrimidine-2-carbonitrile]
- IC50: 60 to 600 nM

SMILES: Cc1ccc(-c2ccc3nc(-c4cccnc4N)n(-c4ccc(CN5CCC(Nc6ccnc(C#N)n6)CC5)cc4)c3n2)cn1 [Example 534, 4-((1-(4-(2-(2-Aminopyridin-3-yl)-5-(6-methylpyridin-3-yl)-3H-imidazo[4,5-b]pyridin-3-yl)benzyl)piperidin-4-yl)amino)pyrimidine-2-carbonitrile]
- IC50: < 15 nM

SMILES: N#Cc1nccc(NC2CCN(Cc3ccc(-n4c(-c5cccnc5N)nc5ccc(OC(F)F)nc54)cc3)CC2)n1 [Example 535, 4-((1-(4-(2-(2-Aminopyridin-3-yl)-5-(difluoromethoxy)-3H-imidazo[4,5-b]pyridin-3-yl)benzyl)piperidin-4-yl)amino)pyrimidine-2-carbonitrile]
- IC50: < 15 nM

SMILES: COc1ccncc1-c1ccc2nc(-c3cccnc3N)n(-c3ccc(CN4CCC(Nc5ccnc(C#N)n5)CC4)cc3)c2n1 [Example 536, 4-((1-(4-(2-(2-Aminopyridin-3-yl)-5-(4-methoxypyridin-3-yl)-3H-imidazo[4,5-b]pyridin-3-yl)benzyl)piperidin-4-yl)amino)pyrimidine-2-carbonitrile]
- IC50: < 15 nM

SMILES: COc1ncccc1-c1ccc2nc(-c3cccnc3N)n(-c3ccc(CN4CCC(Nc5ccnc(C#N)n5)CC4)cc3)c2n1 [Example 537, 4-((1-(4-(2-(2-Aminopyridin-3-yl)-5-(2-methoxypyridin-3-yl)-3H-imidazo[4,5-b]pyridin-3-yl)benzyl)piperidin-4-yl)amino)pyrimidine-2-carbonitrile]
- IC50: < 15 nM

SMILES: N#Cc1nccc(NC2CCN(Cc3ccc(-n4c(-c5cccnc5N)nc5ccc(-c6ccc[nH]c6=O)nc54)cc3)CC2)n1 [Example 538, 4-((1-(4-(2-(2-Aminopyridin-3-yl)-5-(2-hydroxypyridin-3-yl)-3H-imidazo[4,5-b]pyridin-3-yl)benzyl)piperidin-4-yl)amino)pyrimidine-2-carbonitrile]
- IC50: 15 to 60 nM

SMILES: Cc1nn(C)cc1-c1ccc2nc(-c3cccnc3N)n(-c3ccc(CN4CCC(Nc5ccnc(C#N)n5)CC4)cc3)c2n1 [Example 539, 4-((1-(4-(2-(2-Aminopyridin-3-yl)-5-(1,3-dimethyl-1H-pyrazol-4-yl)-3H-imidazo[4,5-b]pyridin-3-yl)benzyl)piperidin-4-yl)amino)pyrimidine-2-carbonitrile]
- IC50: < 15 nM

SMILES: N#Cc1nccc(NC2CCN(Cc3ccc(-n4c(-c5cccnc5N)nc5cnccc54)cc3)CC2)n1 [Example 540, 4-((1-(4-(2-(2-Aminopyridin-3-yl)-1H-imidazo[4,5-c]pyridin-1-yl)benzyl)piperidin-4-yl)amino)pyrimidine-2-carbonitrile]
- IC50: 60 to 600 nM

SMILES: CN(c1ccnc(C#N)n1)C1CCN(Cc2ccc(-n3c(-c4cccnc4N)nc4ccc(-c5ccc(F)cc5)nc43)cc2)CC1 [Example 541, 4-((1-(4-(2-(2-aminopyridin-3-yl)-5-(4-fluorophenyl)-3H-imidazo[4,5-b]pyridin-3-yl)benzyl)piperidin-4-yl)(methyl)amino)pyrimidine-2-carbonitrile]
- IC50: < 15 nM
